{"source": "paper PMC3747596", "about": "(PLoS ONE, 2013)", "key": {"[1]": {"target": "M1-R (Homo sapiens, UniProt P11229)", "sequence (P11229 whole entry)": "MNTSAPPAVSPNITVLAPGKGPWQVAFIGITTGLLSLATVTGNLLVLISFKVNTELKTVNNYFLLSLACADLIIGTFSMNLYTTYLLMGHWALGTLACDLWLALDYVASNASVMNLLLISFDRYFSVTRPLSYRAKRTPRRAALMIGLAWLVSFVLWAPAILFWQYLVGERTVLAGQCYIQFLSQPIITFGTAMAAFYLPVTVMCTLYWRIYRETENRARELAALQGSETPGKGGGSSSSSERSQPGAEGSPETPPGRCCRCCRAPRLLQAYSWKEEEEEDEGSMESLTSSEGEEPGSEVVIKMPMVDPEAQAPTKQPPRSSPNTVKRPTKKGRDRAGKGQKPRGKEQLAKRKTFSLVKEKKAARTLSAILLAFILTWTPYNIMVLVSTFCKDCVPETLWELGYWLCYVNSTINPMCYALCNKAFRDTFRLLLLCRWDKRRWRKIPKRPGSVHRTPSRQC"}, "[2]": {"target": "T1, α1A-AR (Homo sapiens, UniProt P35348)", "T1 sequence (P35348 1-466)": "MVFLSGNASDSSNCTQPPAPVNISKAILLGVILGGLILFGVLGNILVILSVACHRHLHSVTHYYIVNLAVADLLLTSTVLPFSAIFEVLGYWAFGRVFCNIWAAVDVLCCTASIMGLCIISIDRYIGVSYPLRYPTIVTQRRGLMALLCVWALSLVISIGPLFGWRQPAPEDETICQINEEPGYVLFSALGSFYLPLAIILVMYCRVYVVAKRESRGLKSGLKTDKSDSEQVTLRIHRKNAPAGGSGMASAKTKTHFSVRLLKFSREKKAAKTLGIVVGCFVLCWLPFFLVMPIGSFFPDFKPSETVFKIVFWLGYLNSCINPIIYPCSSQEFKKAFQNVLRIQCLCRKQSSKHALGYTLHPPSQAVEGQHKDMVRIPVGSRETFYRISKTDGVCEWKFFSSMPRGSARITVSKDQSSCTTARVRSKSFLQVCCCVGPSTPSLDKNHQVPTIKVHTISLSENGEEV", "assay": "PI hydrolysis assay, α1A-AR", "conditions": "hydrolysis of phosphatidylinositol 4,5-bisphosphate (PI)"}, "[3]": {"target": "non-opioid receptors and transporters", "assay": "Radioligand displacement panel, non-opioid targets", "conditions": "read-out: K i for all non-opioid targets; 43 non-opioid targets"}, "[4]": {"target": "noradrenaline transporter (NET) (Homo sapiens, UniProt P23975)", "sequence (P23975 whole entry)": "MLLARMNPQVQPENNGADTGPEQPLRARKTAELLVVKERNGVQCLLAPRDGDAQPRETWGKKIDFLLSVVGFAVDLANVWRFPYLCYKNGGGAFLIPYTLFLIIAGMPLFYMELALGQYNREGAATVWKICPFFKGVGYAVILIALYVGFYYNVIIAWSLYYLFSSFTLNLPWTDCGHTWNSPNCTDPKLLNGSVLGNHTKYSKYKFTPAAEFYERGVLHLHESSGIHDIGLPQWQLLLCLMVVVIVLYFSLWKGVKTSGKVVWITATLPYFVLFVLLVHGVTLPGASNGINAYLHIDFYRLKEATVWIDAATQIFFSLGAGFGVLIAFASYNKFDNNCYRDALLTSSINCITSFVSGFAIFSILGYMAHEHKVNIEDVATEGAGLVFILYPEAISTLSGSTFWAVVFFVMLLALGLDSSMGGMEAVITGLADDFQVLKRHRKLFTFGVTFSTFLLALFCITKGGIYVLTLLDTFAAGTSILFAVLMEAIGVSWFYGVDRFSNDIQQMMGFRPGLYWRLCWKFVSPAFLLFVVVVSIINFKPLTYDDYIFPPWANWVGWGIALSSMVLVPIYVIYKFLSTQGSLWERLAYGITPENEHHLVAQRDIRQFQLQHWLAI", "assay": "Inhibition of noradrenaline transporter, fluorescent dye uptake", "format": "cell-based", "conditions": "95% CI = 0.5 to 2.6 µM; read-out: IC50, inhibition of noradrenaline transport"}, "[5]": {"tested_on": "κ-OR", "set-up": "method as in ref 3 = [3]; 3 Béguin C, Cohen BM (2009) Medicinal Chemistry of Kappa Opioid Receptor Antagonists. In: Dean RL, Bilsky EJ, Negus SS, editors. Opiate Receptors and Antagonists: from Bench to Clinic. New York: Human", "conditions": "cited from earlier work"}, "[6]": {"target": "N-methyl-D-aspartate (NMDA) receptor", "set-up": "method as in PMID 7681005", "conditions": "[3H]CGP-39,653, glutamate site; cited from earlier work"}, "[7]": {"target": "nociceptin/orphanin FQ receptor (NOP)", "set-up": "method as in PMID 8943250", "conditions": "cited from earlier work"}}, "data": [{"smiles": "N=C(N)Nc1ccc2[nH]c3c(c2c1)C[C@@]1(O)[C@H]2Cc4ccc(O)c5c4[C@@]1(CCN2CC1CC1)[C@H]3O5", "note": "[GNTI, 5′-guanidinonaltrindole]", "values": [{"measurement": "K B", "setting": "[1]; antagonism of acetylcholine, calcium mobilization, 95% CI = 3.2 to 4.3 µM", "result": 3.7, "unit": "µM"}, {"measurement": "activation of M1-R", "setting": "[1]; calcium mobilization", "result": "did not activate M1-R"}, {"measurement": "selectivity for κ-OR over M1-R", "setting": "[1]; functional potency at κ-OR (ref 3) versus K B at M1-R", "result": "> 3,000 fold"}, {"measurement": "effect on maximal response to noradrenaline, PI hydrolysis", "setting": "[2]", "result": "slightly reduced the maximal response to noradrenaline"}, {"measurement": "Ki", "setting": "[3]", "result": "> 2000", "unit": "nM"}]}, {"smiles": "CC(C)[C@@H](CN1CC[C@@](C)(c2cccc(O)c2)[C@@H](C)C1)NC(=O)[C@H]1Cc2ccc(O)cc2CN1", "note": "[JDTic]", "values": [{"measurement": "IC50", "setting": "[4]", "result": 1100, "unit": "nM"}, {"measurement": "K e in κ-OR functional assays", "setting": "[5]", "result": "< 20", "unit": "pM"}]}, {"smiles": "Oc1ccc2c3c1O[C@H]1c4[nH]c5c(c4C[C@@]4(O)[C@@H](C2)N(CC2CC2)CC[C@]314)C[C@@]1(O)[C@H]2Cc3ccc(O)c4c3[C@@]1(CCN2CC1CC1)[C@H]5O4", "note": "[nor-BNI, Nor-binaltorphimine]", "values": [{"measurement": "Ki", "setting": "[6]", "result": "> 1000", "unit": "nM"}, {"measurement": "Ki", "setting": "[7]", "result": 780, "unit": "nM"}]}]}
